How the values were obtained:
A375P cell line = A375P cell line proliferation inhibitory activity (MTT assay); type: cell-based; conditions: A375P cells, 48 hours treatment
Description: A375P cell lines were purchased from ATCC and cultured in a DMEM culture medium (containing 10% FBS and 1% penicillin/streptomycin) in the presence of 5% CO2 at 37° C. The cultured A375P cell lines were taken from culture substrate with 0.05% trypsin-0.02% EDTA and plated at a density of 5×10^3 cells per well in 96-well plates.
(§1) In order to measure cell viability, MTT [3-(4,5-dimethylthiazole-2-yl)-2,5-diphenyltetrazolium bromide] activity assay method (Thiazolyl Blue Tetrazolium Bromide, Sigma Aldrich) was used. Cell lines were cultured in 96-well plates for 24 hours and treated with the compounds of Examples previously prepared. For the compound treatment, 10 mM stocks were prepared, serially diluted in DMSO and added by 0.5 μL at 8 points (final concentration of 0.5%). The cell lines in plates treated with the compounds was cultured for 48 hours, then 15 μL of dye was added to each well and cultured for 4 hours. Then, 100 μL of DMSO solvent was added to each well, and the formed solid was dissolved to measure the absorbance. The absorbance was read at a wavelength of 570 nm using EnVision 2103, and the GI 50 value was calculated using GraphPad Prism 4.0 software, and the results are shown in Table 1 below.

U937 cell line = U937 cell line proliferation inhibitory activity (MTT assay); type: cell-based; conditions: Homo sapiens, U-937, U937 cells
Description: as §1
U937 cell lines were purchased from ATCC and cultured in a RPMI culture medium (containing 10% FBS, 1% penicillin/streptomycin and 25 mM HEPES) in the presence of 5% CO2 at 37° C. The cell line proliferation inhibitory activity for Examples previously prepared was measured using the same MTT activity assay method as the A375P cell line proliferation inhibitory activity assay in Experimental Example 1.

FMS = target: T1, FMS (Homo sapiens, UniProt P07333); assay: FMS inhibitory activity (Reaction Biology Kinase profiling, IC50 profiler express); type: biochemical
T1 construct: purchased Reaction Biology Corporation
T1 sequence (P07333 20-972): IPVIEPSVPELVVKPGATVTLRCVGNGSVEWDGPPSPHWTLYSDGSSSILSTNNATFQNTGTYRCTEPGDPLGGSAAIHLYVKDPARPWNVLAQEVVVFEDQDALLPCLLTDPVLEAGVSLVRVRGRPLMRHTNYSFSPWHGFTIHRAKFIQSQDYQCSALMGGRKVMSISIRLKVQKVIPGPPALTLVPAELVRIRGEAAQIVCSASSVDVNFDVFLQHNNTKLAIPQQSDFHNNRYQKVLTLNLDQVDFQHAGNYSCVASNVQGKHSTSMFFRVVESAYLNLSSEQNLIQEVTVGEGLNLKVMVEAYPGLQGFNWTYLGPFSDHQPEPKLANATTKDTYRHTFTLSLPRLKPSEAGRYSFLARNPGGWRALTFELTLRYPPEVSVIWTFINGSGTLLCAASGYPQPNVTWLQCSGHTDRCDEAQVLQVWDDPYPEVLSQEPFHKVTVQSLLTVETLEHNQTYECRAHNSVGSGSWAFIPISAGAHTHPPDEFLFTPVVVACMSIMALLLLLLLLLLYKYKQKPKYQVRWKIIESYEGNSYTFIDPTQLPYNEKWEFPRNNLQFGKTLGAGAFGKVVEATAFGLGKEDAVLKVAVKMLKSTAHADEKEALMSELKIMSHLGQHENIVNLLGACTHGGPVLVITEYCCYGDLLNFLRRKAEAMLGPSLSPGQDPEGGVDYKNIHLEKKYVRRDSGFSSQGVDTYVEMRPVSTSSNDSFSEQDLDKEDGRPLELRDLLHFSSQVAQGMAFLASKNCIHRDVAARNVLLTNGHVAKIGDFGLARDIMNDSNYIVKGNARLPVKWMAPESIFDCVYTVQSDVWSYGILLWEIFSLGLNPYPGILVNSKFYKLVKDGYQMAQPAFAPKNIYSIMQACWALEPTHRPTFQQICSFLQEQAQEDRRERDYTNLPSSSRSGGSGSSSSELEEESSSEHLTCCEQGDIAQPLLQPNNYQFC
Description: The inhibitory activity of FMS at a concentration of 10 μM of the compound prepared in Example 5 was measured using Kinase profiling services (IC 50 profiler express) offered by Reaction Biology Corporation.

GI50 (A375P cell line)	GI50 (U937 cell line)	inhibition at 10 µM (FMS; compound concentration 10 μM, read-out: FMS activity inhibited)	IC50 (FMS; sequentially decreasing concentration, read-out: concentration that inhibits FMS activity by 50% (IC50))	Compound
10 to 30 µM	10 to 30 µM	98.7%	0.00995 µM	Cc1ccc(NC(=O)c2ccc(Cl)c(C(F)(F)F)c2)cc1NC(=O)c1cnoc1C [Example 5, N-(5-(4-chloro-3-(trifluoromethyl)benzamido)-2-methylphenyl)-5-methylisoxazole-4-carboxamide]
10 to 30 µM	10 to 30 µM	–	–	Cc1ccc(NC(=O)c2ccc3ccccc3n2)cc1NC(=O)c1cnoc1C [Example 12, 5-methyl-N-(2-methyl-5-(quinoline-2-carboxamido)phenyl)isoxazole-4-carboxamide]
10 to 30 µM	1 to 10 µM	–	–	Cc1cc(C)cc(C(=O)Nc2ccc(C)c(NC(=O)c3cnoc3C)c2)c1 [Example 24, N-(5-(3,5-dimethylbenzamido)-2-methylphenyl)-5-methylisoxazole-4-carboxamide]
10 to 30 µM	< 1 µM	–	–	Cc1cn(-c2cc(C(=O)Nc3ccc(C)c(NC(=O)c4cnoc4C)c3)cc(C(F)(F)F)c2)cn1 [Example 11, 5-methyl-N-(2-methyl-5-(3-(4-methyl-1H-imidazol-1-yl)-5-(trifluoromethyl)benzamido)phenyl)isoxazole-4-carboxamide]
10 to 30 µM	10 to 30 µM	–	–	Cc1ccc(NC(=O)Nc2cccc(Cl)c2)cc1NC(=O)c1cnoc1C [Example 32, N-(5-(3-(3-chlorophenyl)ureido)-2-methylphenyl)-5-methylisoxazole-4-carboxamide]
10 to 30 µM	< 1 µM	–	–	Cc1ccc(NC(=O)c2ccc(N3CCOCC3)c(C(F)(F)F)c2)cc1NC(=O)c1cnoc1C [Example 4, 5-methyl-N-(2-methyl-5-(4-morpholino-3-(trifluoromethyl)benzamido)phenyl)isoxazole-4-carboxamide]

Further lines, the molecule ahead of its results:

Compound	GI50 (A375P cell line)	GI50 (U937 cell line)	inhibition at 10 µM (FMS; compound concentration 10 μM, read-out: FMS activity inhibited)	IC50 (FMS; sequentially decreasing concentration, read-out: concentration that inhibits FMS activity by 50% (IC50))
Cc1ccc(NC(=O)Nc2ccccc2F)cc1NC(=O)c1cnoc1C [Example 31, N-(5-(3-(2-fluorophenyl)ureido)-2-methylphenyl)-5-methylisoxazole-4-carboxamide]	10 to 30 µM	10 to 30 µM	–	–
Cc1ccc(NC(=O)c2ccc(-c3ccccc3)cc2)cc1NC(=O)c1cnoc1C [Example 26, N-(5-biphenyl-4-ylcarboxamido-2-methylphenyl)-5-methylisoxazole-4-carboxamide]	10 to 30 µM	10 to 30 µM	–	–
Cc1ccc(NC(=O)c2ccccc2-c2ccccc2)cc1NC(=O)c1cnoc1C [Example 25, N-(5-biphenyl-2-ylcarboxamido-2-methylphenyl)-5-methylisoxazole-4-carboxamide]	10 to 30 µM	10 to 30 µM	–	–
Cc1ccc(NC(=O)C(c2ccc(Cl)cc2)c2ccc(Cl)cc2)cc1NC(=O)c1cnoc1C [Example 13, N-(5-(2,2-bis(4-chlorophenyl)acetamido)-2-methylphenyl)-5-methylisoxazole-4-carboxamide]	10 to 30 µM	10 to 30 µM	–	–
CC(=O)N1CCC(C(=O)Nc2ccc(C)c(NC(=O)c3cnoc3C)c2)CC1 [Example 15, N-(5-(1-acetylpiperidine-4-carboxamido)-2-methylphenyl)-5-methylisoxazole-4-carboxamide]	10 to 30 µM	10 to 30 µM	–	–
